Source: ChEMBL document CHEMBL1201862, “PubChem BioAssay data set” (2004)
Active and inactive are the calls of the source.

Tests used:
[1] = target: T1, G-protein coupled receptor 35 (Homo sapiens, UniProt Q9HC97); experiment: GPR35 antagonists blocking zaprinast-driven arrestin recruitment, primary screen, imaging, U2OS, beta-arrestin-GFP, zaprinast agonist (AID 2058); format: functional;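 note: antagonist potency meaning inhibition of agonist-induced arrestin redistribution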
[2] = target: T1, G-protein coupled receptor 35; experiment: SAR analysis of Antagonists of the GPR35 Receptor using an Image-Based Assay - Set 5. [Related pubchem assays (depositor defined):AID2058, AID2079]; format: functional
[3] = target: T1, G-protein coupled receptor 35; experiment: SAR Analysis for the identification of Selective Antagonists of ERK1/2 Activity in GPR35-Overexpressing U2OS Cells - Set 2. [Related pubchem assays (depositor defined):AID2058, AID2079]; format: functional, cell-based
[4] = target: G-protein coupled receptor 55 (Homo sapiens, UniProt Q9Y2T6); experiment: SAR Analysis of Selective Antagonists of GPR55 using an Image-Based Assay - Set 3. [Related pubchem assays (depositor defined):AID2058, AID2079]; format: functional
[5] = target: Glyceraldehyde-3-phosphate dehydrogenase (Homo sapiens, UniProt P04406)
[6] = target: T2, Alkaline phosphatase, tissue-nonspecific isozyme (Homo sapiens, UniProt P05186); experiment: human TNAP enzyme inhibitors, SAR follow-up, biochemical, luminescent, dose response (AID 1056)
T2 sequence (P05186 whole entry): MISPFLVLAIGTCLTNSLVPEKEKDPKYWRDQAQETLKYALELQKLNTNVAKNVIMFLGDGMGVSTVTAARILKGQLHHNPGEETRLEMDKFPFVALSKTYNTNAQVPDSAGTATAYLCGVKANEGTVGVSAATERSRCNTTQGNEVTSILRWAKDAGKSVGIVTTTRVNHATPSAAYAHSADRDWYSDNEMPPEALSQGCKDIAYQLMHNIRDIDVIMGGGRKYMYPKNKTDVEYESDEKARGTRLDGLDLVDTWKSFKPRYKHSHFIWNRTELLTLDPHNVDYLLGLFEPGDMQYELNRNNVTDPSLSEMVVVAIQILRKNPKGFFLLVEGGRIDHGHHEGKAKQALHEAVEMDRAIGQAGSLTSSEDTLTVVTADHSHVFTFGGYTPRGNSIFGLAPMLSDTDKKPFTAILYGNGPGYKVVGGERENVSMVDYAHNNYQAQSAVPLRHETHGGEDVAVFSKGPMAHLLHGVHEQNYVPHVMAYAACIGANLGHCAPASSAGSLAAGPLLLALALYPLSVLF

J774.A1 = experiment: Confirmation of image-based Screening Assay for Inhibitors of Phagocytosis. [Related pubchem assays (depositor defined):AID1029, AID1643]; format: functional, cell-based; settings: Mus musculus
Mu-type opioid receptor = Mu-type opioid receptor (Homo sapiens, UniProt P35372); experiment: SAR Analysis of Antagonists of the MOR Receptor using an Image-Based Assay - Set 3. [Related pubchem assays (depositor defined):AID1777, AID1785, AID1786, AID1966, AID2133, AID2136, AID2284, AID2285, AID2420]; format: functional
[7] = target: T3, Kappa-type opioid receptor (Homo sapiens, UniProt P41145); experiment: SAR analysis of small molecule antagonists of the kappa opioid receptor via a luminescent beta-arrestin assay - Set 4. [Related pubchem assays (depositor defined):AID1777, AID1778, AID1785, AID1786, AID1966, AID2133, AID2136, AID2285]; format: functional
[8] = target: Delta-type opioid receptor (Homo sapiens, UniProt P41143); experiment: SAR Analysis of Antagonists of the DOR Receptor using an Image-Based Assay - Set 3. [Related pubchem assays (depositor defined):AID1777, AID1785]; format: functional;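 note: U2OS cells expressing DOR1 and beta-arrestin GFP stimulated with 100 nM SNC80; imaging of GFP-tagged beta-arrestin moving into spots after receptor activation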
[9] = target: T3, Kappa-type opioid receptor; experiment: SAR analysis of Antagonists of the Kappa Opioid Receptor (KOR) using an Image-Based Assay - Set 4. [Related pubchem assays (depositor defined):AID1777, AID1785]; format: functional
[10] = target: T4, E3 ubiquitin-protein ligase XIAP (Homo sapiens, UniProt P98170); experiment: Counter Screen using XIAP-Bir3 of the Chemical Antagonists of IAP-family anti-apoptotic proteins confirmation assay. [Related pubchem assays (depositor defined):AID1018, AID1449, AID1513, AID1638, AID1749, AID1750, AID488957, AID488963]
[11] = target: T4, E3 ubiquitin-protein ligase XIAP; experiment: Chemical Antagonists of IAP-family anti-apoptotic proteins confirmation. [Related pubchem assays (depositor defined):AID1018, AID1513, AID1514, AID1638, AID1749, AID1750, AID488957, AID488963]
[12] = target: T4, E3 ubiquitin-protein ligase XIAP; experiment: XIAP antagonists, biochemical, IAP family, fluorescence polarization (AID 1018); format: functional
[13] = target: Eukaryotic translation initiation factor 4E (Mus musculus, UniProt P63073); experiment: eIF4E–eIF4G protein interaction inhibitors, dose response, biochemical, TR-FRET (AID 855); format: functional;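 note: potency for disrupting eIF4E binding to eIF4GI seen as loss of FRET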
Hexokinase HKDC1 [14] = target: T5, Hexokinase HKDC1 (Homo sapiens, UniProt Q2TB90); experiment: HKDC1 hexokinase inhibitors, dose response, biochemical, W721R variant (AID 504729); format: functional
T5 sequence (Q2TB90 whole entry): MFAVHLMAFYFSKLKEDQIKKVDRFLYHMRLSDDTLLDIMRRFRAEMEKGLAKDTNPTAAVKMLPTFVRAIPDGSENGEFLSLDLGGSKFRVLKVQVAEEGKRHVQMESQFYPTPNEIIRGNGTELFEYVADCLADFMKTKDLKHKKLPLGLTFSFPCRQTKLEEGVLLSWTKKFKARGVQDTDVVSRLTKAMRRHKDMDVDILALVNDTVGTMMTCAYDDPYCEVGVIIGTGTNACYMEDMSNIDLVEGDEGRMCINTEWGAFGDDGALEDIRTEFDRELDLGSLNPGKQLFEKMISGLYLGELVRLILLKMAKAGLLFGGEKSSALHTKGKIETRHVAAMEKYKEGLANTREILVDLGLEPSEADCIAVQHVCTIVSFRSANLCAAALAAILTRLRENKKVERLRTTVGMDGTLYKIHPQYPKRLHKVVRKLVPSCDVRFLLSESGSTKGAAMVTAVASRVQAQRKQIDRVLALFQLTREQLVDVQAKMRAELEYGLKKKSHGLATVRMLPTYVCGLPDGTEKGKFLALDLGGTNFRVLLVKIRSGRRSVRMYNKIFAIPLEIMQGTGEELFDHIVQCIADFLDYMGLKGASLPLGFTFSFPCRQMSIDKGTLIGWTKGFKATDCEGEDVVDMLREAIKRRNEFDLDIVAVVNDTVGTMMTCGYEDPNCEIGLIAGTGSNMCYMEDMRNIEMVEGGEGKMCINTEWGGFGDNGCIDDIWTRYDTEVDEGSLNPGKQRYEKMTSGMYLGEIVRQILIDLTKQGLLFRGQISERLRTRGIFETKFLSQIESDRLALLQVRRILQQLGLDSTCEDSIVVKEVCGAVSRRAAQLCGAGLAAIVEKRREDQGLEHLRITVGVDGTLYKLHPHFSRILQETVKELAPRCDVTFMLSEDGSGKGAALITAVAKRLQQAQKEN

T-cell = experiment: inhibitors of CD8+ T cell–vesicle binding, dose response, mouse 2C CD8+ T cells, flow cytometry (AID 485284); format: functional
[15] = target: Induced myeloid leukemia cell differentiation protein Mcl-1 (Homo sapiens, UniProt Q07820); experiment: MCL1-BIM BH3 interaction inhibitors, dose response, biochemical, fluorescence polarization, BIM-BH3 peptide, 1536-well (AID 2217)
Bcl-2-like protein 1 = Bcl-2-like protein 1 (Homo sapiens, UniProt Q07817); experiment: BCL-XL inhibitors, dose response, selectivity assay for MCL1 inhibitor project, biochemical, fluorescence polarization, 1536-well (AID 2218)
[16] = target: Peroxisome proliferator-activated receptor gamma (Homo sapiens, UniProt P37231); experiment: PPARg partial agonists, dose response, cell-based, luminescence, assay provider (AID 504447); format: functional
[17] = target: T6, Small ubiquitin-related modifier 1 (Homo sapiens, UniProt P63165); experiment: inhibitors of SUMO1 peptide binding, dose response, biochemical, fluorescence polarization, uHTS hits (AID 624382); format: functional; settings: read-out: IC50_Mean
[18] = target: T7, Probable nicotinate-nucleotide adenylyltransferase (Staphylococcus aureus (strain N315), UniProt P65502); format: functional, Staphylococcus aureus subsp. aureus N315;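 for IC50 Mean: confirmatory dose-response retesting of NadD inhibitor hits first found in an ultra-high-throughput screen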
[19] = target: T7, Probable nicotinate-nucleotide adenylyltransferase; format: functional, Staphylococcus aureus subsp. aureus N315; settings: read-out: IC50_Mean
[20] = target: T6, Small ubiquitin-related modifier 1; experiment: inhibitors of SUMO1 partner interactions, dose response, biochemical, FRET (AID 624383); format: functional; settings: read-out: IC50_Mean
[21] = HeLa cell cytotoxicity, dose response, cytotoxicity control for MgcRacGAP inhibitor project (AID 624300); format: functional
[22] = target: T8, Rac GTPase-activating protein 1 (Homo sapiens, UniProt Q9H0H5); experiment: MgcRacGAP GTPase-activating activity inhibitors, confirmation, biochemical, ADP Hunter fluorescence, primary and confirmatory (AID 624330); format: functional
T8 sequence (Q9H0H5 whole entry): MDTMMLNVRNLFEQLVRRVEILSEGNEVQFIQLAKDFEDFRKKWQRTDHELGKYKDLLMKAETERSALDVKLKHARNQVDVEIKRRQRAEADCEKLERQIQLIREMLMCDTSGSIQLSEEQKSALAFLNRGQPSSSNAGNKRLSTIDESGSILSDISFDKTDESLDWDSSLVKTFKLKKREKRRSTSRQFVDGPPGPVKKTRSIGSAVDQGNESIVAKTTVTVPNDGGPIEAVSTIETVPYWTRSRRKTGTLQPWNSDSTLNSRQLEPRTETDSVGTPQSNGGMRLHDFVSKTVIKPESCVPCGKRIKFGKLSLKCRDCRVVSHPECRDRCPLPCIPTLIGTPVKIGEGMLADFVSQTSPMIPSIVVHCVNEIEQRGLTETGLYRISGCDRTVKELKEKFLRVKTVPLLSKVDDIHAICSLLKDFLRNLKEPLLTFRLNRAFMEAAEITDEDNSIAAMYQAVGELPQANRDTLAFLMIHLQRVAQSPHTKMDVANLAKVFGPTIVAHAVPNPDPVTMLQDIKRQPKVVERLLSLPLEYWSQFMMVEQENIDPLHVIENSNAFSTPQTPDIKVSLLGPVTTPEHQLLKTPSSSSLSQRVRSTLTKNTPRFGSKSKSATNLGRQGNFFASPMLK

[23] = target: Voltage-dependent T-type calcium channel subunit alpha-1H (Homo sapiens, UniProt O95180); experiment: Cav3.2 T-type channel inhibitors, cell-based, synthetic library set 1, calcium flux (AID 493022); format: functional
Hexokinase HKDC1 [24] = target: T5, Hexokinase HKDC1; experiment: HKDC1 hexokinase activators, dose response, biochemical, W721R variant (AID 504730); format: functional
Nonstructural protein 1 = Nonstructural protein 1 (Influenza A virus, UniProt Q194T2); format: functional, Influenza A virus (A/California/07/2009(H1N1))
Hexokinase-1 = Hexokinase-1 (Homo sapiens, UniProt P19367); experiment: hexokinase 1 activators, dose response, selectivity assay for HKDC1 activator project, biochemical (AID 504762); format: functional
HEK293 = experiment: inhibitors of LMP1-driven NF-kB reporter, dose response, cell-based, HEK293, luciferase, cherry-pick (AID 588343); format: functional; settings: Homo sapiens

T4 sequence (P98170 whole entry): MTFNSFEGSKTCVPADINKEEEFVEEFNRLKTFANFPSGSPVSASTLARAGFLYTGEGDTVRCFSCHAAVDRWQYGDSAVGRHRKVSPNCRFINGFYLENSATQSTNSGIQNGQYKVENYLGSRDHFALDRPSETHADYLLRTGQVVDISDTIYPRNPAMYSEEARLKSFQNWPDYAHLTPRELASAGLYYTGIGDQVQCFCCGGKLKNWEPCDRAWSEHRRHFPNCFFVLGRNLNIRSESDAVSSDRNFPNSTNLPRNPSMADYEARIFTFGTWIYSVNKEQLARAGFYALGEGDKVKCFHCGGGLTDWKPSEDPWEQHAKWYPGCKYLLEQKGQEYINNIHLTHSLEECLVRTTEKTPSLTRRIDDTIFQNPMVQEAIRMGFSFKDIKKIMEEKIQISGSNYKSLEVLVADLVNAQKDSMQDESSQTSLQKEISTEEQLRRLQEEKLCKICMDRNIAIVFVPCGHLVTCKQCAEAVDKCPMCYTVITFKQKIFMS
T1 sequence (Q9HC97 whole entry): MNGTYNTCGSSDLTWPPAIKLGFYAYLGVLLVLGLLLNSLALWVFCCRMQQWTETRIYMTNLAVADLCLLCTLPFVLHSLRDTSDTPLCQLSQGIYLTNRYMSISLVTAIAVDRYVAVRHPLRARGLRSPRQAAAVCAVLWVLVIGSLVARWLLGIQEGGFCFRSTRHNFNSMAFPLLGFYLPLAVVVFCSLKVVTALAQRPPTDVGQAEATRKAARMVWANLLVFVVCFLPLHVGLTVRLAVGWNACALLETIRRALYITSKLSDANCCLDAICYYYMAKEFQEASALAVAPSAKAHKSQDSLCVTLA
T6 sequence (P63165 whole entry): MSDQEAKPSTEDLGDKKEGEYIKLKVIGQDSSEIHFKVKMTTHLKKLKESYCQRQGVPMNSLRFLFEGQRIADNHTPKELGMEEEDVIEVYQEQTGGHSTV
T7 sequence (P65502 whole entry): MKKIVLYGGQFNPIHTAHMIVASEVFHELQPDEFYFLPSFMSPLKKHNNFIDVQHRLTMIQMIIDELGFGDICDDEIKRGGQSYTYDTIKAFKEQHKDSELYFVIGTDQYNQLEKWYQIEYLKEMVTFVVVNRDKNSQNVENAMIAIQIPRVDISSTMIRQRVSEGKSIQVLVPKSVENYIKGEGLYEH
T3 sequence (P41145 whole entry): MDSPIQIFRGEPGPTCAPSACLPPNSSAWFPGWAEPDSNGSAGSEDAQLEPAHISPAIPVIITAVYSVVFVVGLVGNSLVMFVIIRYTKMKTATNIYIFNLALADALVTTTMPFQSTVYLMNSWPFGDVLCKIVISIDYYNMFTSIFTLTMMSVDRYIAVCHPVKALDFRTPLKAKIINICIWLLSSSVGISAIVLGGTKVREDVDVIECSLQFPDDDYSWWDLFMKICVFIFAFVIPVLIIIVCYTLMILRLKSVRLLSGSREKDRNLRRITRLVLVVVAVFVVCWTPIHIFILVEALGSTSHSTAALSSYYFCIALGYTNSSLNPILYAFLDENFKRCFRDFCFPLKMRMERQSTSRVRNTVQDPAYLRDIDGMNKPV
Sequence of Induced myeloid leukemia cell differentiation protein Mcl-1 (Q07820 whole entry): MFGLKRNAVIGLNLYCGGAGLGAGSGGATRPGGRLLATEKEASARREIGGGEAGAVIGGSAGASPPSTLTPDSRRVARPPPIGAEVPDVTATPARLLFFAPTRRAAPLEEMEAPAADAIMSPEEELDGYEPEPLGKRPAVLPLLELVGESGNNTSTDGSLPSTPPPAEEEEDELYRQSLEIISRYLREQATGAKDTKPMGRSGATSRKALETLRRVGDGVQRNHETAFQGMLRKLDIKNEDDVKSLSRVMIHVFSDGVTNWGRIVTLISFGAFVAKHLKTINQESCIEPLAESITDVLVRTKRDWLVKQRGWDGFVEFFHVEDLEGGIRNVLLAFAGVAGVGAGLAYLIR
Sequence of Mu-type opioid receptor (P35372 whole entry): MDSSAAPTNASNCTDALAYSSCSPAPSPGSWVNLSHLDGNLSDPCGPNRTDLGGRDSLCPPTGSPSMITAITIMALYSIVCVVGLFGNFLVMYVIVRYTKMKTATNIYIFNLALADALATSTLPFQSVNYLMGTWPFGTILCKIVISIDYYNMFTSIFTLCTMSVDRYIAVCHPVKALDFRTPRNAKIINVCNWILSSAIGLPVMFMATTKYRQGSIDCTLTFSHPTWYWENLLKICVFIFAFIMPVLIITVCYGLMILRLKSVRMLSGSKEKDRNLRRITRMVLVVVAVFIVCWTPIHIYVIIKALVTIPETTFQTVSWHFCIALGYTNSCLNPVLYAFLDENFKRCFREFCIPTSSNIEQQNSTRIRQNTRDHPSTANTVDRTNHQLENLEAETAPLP
Sequence of Bcl-2-like protein 1 (Q07817 whole entry): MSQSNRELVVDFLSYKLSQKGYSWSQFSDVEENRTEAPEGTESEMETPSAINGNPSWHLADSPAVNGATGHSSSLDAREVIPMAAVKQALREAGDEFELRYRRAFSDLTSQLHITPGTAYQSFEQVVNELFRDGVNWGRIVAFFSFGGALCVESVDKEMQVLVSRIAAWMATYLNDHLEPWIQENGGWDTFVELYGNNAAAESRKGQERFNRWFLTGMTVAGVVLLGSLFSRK
Sequence of Peroxisome proliferator-activated receptor gamma (P37231 whole entry): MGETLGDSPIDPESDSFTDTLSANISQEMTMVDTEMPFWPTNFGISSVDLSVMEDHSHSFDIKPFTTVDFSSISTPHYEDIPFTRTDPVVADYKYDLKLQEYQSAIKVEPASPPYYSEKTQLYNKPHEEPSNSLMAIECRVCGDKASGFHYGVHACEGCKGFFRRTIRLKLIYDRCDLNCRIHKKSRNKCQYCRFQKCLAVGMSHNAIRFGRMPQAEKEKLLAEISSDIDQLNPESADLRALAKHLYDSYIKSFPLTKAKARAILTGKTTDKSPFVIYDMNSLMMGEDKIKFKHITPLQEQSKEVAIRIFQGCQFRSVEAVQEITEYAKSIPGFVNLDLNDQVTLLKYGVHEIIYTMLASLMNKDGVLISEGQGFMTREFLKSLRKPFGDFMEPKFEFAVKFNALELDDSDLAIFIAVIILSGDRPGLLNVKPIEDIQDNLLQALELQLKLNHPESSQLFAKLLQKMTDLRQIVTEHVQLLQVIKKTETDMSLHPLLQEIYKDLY
Sequence of Hexokinase-1 (P19367 whole entry): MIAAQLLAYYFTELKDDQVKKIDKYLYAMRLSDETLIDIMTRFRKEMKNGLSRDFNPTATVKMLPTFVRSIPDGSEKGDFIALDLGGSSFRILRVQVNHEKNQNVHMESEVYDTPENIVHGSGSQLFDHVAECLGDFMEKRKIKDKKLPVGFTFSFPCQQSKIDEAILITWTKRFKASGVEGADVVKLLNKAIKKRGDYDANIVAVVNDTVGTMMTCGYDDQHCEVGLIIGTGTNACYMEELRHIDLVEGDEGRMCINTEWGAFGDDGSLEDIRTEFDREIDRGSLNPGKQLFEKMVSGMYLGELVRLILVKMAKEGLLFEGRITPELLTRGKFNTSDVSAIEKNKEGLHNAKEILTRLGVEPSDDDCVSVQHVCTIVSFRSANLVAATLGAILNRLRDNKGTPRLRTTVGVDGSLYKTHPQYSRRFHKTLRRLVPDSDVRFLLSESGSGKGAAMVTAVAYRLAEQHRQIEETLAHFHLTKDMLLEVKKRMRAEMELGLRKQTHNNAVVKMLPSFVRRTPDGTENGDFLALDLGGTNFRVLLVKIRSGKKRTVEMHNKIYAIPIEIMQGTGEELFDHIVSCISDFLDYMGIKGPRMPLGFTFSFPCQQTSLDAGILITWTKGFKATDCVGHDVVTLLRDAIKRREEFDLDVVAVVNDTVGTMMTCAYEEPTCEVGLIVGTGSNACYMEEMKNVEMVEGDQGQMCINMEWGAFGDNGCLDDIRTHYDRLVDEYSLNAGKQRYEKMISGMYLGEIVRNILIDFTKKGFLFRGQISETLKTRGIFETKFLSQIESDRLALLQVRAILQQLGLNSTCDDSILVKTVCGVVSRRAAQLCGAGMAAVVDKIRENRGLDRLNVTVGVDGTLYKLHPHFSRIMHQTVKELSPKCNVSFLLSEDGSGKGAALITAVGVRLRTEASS
Sequence of Nonstructural protein 1 (Q194T2 whole entry): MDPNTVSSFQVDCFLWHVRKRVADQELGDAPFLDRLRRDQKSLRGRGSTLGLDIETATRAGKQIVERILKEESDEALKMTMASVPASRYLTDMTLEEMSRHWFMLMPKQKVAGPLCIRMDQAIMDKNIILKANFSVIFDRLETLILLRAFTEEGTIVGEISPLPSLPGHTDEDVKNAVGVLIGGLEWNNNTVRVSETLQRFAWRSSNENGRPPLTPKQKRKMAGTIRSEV
Sequence of Delta-type opioid receptor (P41143 whole entry): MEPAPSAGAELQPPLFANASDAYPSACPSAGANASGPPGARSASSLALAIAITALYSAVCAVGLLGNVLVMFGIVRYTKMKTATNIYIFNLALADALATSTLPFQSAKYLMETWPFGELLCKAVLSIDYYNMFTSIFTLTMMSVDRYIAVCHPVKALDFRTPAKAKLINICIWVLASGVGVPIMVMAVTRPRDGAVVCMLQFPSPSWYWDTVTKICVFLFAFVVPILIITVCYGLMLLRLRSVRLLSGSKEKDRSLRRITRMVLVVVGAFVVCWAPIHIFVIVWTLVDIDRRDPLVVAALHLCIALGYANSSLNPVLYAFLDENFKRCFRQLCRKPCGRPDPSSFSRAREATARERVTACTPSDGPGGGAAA
Sequence of Eukaryotic translation initiation factor 4E (P63073 whole entry): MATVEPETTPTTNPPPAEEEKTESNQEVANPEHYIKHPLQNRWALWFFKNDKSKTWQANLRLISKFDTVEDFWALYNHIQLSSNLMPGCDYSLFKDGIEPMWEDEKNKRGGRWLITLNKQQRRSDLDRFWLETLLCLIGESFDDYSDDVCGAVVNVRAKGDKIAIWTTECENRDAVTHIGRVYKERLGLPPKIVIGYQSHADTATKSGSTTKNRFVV

Q: Which IC50 [1] does the source give for `COC(=O)c1cnn(-c2ccc(F)cc2F)c1/C=N/NC(=S)NC(C)(C)C` here?
A: < 0.5 µM (active)

Q: And the IC50 [2]?
A: 0.16 µM (active)

Q: And the IC50 [3]?
A: 1.39 µM (active)

Q: What about the IC50 [4] of the same compound?
A: 9.08 µM (active)

Q: Which IC50 [5] does the source give for `c1cncc(-n2cncn2)c1` here?
A: > 100 µM (not active)

Q: What about the IC50 [6] of the same compound?
A: > 100 µM (inactive)

Q: Which IC50 (J774.A1) does the source give for `O=C(COc1ccc(-c2ccccc2)cc1)N1CCN(S(=O)(=O)Cc2ccccc2)CC1` here?
A: > 25 µM (inactive)

Q: Which IC50 (Mu-type opioid receptor) does the source give for `Cc1ccc(S(=O)(=O)NCc2ccc(C(=O)NCCN3CCC(c4ccccc4)CC3)cc2)cc1` here?
A: 3.88 µM (active)

Q: What about the IC50 [7] of the same compound?
A: > 20 µM (inactive)

Q: What about the IC50 [8] of the same compound?
A: > 32 µM (inactive)

Q: What about the IC50 [9] of the same compound?
A: 10.6 µM (inactive)

Q: Which IC50 [10] does the source give for `O=C(O)[C@@H](c1ccccc1)N1Cc2ccccc2C1=O` here?
A: > 200 µM (inactive)

Q: What about the IC50 [11] of the same compound?
A: 65.6 µM (active)

Q: And the IC50 [12]?
A: 28.3 µM (active)

Q: What about the IC50 [13] of the same compound?
A: 13.8 µM (active)

Q: What about the IC50 (Hexokinase HKDC1 [14]) of the same compound?
A: 13.7 µM (active)

Q: Which EC50 (T-cell) does the source give for `CCN(CC)CCNC(=O)CCCNC(=O)Cn1cnc2sc(C)c(C)c2c1=O` here?
A: 9.52 µM (active)

Q: With `O=C(C1=C(O)C(=O)N(c2nc3ccc(Cl)cc3s2)C1c1ccco1)c1ccco1` (stereo unspecified) as the compound, how does the IC50 [15] read?
A: 28.8 µM (not active)

Q: And the IC50 (Bcl-2-like protein 1)?
A: > 109 µM (not active)

Q: And the EC50 [16]?
A: 0.7 µM (active)

Q: What about the IC50 [17] of the same compound?
A: > 66.6 µM (inactive)

Q: And the IC50 [18]?
A: 13.8 µM (active)

Q: And the IC50 [19]?
A: 56.8 µM (active)

Q: And the IC50 [20]?
A: 8.8 µM (active)

Q: What about the CC50 [21] of the same compound?
A: 100 µM (active)

Q: And the IC50 [22]?
A: 118 µM (active)

Q: For `CC(C)(Oc1ccccc1)C(=O)Nc1nnc(-c2ccc3ccccc3c2)o1`, which EC50 [23] is on record?
A: 1.1 µM (active)

Q: Which EC50 (Hexokinase HKDC1 [24]) does the source give for `CC(=NNC(=S)N1CCCCC1)c1cccc(C)n1` here?
A: 14.5 µM (active)

Q: What about the IC50 (Nonstructural protein 1) of the same compound?
A: 3.84 µM (active)

Q: What about the EC50 (Hexokinase-1) of the same compound?
A: > 80 µM (inactive)

Q: What about the AC50 (HEK293) of the same compound?
A: 2.74 µM (active)
